# Data taken from patent US20240109915A1, “NOVEL ACC INHIBITORS” (Pfizer Inc., priority 2022, published 2024).
# Target: recombinant human ACC1 (rhACC1) (Homo sapiens (Human), UniProt Q13085)
# Assay: Transcreener ADP detection FP assay, direct inhibition of rhACC1
# Format: biochemical
# Settings: Geomean IC50, n ≥ 2 unless * then n = 1; 50 μM ATP, 30 μM acetyl-CoA
# Procedure: The direct inhibition of ACC1 for the compounds of the present invention was determined using preparations of recombinant human ACC1 (rhACC1) (SEQ ID NO. 1)
# Two liters of SF9 cells, infected with recombinant baculovirus containing full length human ACC1 cDNA, were suspended in ice-cold lysis buffer (25 mM Tris, pH 7.5; 150 mM NaCl; 10% glycerol; 5 mM imidazole (EMD Bioscience; Gibbstown, NJ); 2 mM TCEP (BioVectra; Charlottetown, Canada); Benzonase nuclease (10000 U/100 g cell paste; Novagen; Madison, WI); EDTA-free protease inhibitor cocktail (1 tab/50 ml; Roche Diagnostics; Mannheim, Germany). Cells were lysed by 3 cycles of freeze-thaw and centrifuged at 40,000×g for 40 minutes (4° C.). Supernatant was directly loaded onto a HisTrap FF crude column (GE Healthcare; Piscataway, NJ) and eluted with an imidazole gradient up to 0.5 M over 20 column volumes (CV). ACC1-containing fractions were pooled and diluted 1:5 with 25 mM Tris, pH 7.5, 2 mM TCEP, 10% glycerol and direct loaded onto a CaptoQ (GE Healthcare) column and eluted with an NaCl gradient up to 1 M over 20 CV's. Phosphate groups were removed from purified ACC1 by incubation with lambda phosphatase (100 U/10 μM target protein; New England Biolabs; Beverly, MA) for 14 hours at 4° C.; okadaic acid was added (1 μM final concentration; Roche Diagnostics) to inhibit the phosphatase. Purified ACC1 was exchanged into 25 mM Tris, pH 7.5, 2 mM TCEP, 10% glycerol, 0.5 M NaCl by 6 hour dialysis at 4° C. Aliquots were prepared and frozen at −80° C.
# Measurement of rhACC1 Inhibition rhACC1 was assayed in a Corning #3820 (Corning, Tewksbury, MA) 384-well plate using the Transcreener ADP detection FP assay kit (Bellbrook Labs, Madison, Wisconsin) using the manufacturer's recommended conditions for a 50 μM ATP reaction. The final conditions for the assay were 50 mM HEPES, pH 7.2, 10 mM MgCl2, 7.5 mM tripotassium citrate, 2 mM DTT, 0.1 mg/mL BSA, 30 μM acetyl-CoA, 50 μM ATP, and 10 mM KHCO3. Typically, a […] was run for 60 min at room temp, and 10 μl of Transcreener stop and detect buffer was added and the combination incubated at room temp for an overnight (18 hours). The data was acquired on an Envision Fluorescence reader (PerkinElmer) using a 620 excitation Cy5 FP general dual mirror, 620 excitation Cy5 FP filter, 688 emission (S) and a 688 (P) emission filter.
row,Molecule,IC50 [nM]
1,"Cc1n[nH]c2c(C)cc(C(=O)N3CCC4(CC3)CC(=O)c3nc(C56CC(C5)C6)sc3C4)cc12 [Example 7, 2-(bicyclo[1.1.1]pentan-1-yl)-1′-(3,7-dimethyl-1H-indazole-5-carbonyl)-5H-spiro[benzo[d]thiazole-6,4′-piperidin]-4(7H)-one]",11
2,"Cc1cc(C(=O)N2CCC3(CC2)CC(=O)c2nc(C(C)(C)C)sc2C3)c2[nH]ncc2c1C [Example 35, 2-(tert-butyl)-1′-(4,5-dimethyl-1H-indazole-7-carbonyl)-5H-spiro[benzo[d]thiazole-6,4′-piperidin]-4(7H)-one]",2.6
3,"[2H]C([2H])([2H])C(c1nc2c(s1)CC1(CCN(C(=O)c3cc(OC)c4c(c3)c(C)nn4C)CC1)CC2=O)(C([2H])([2H])[2H])C([2H])([2H])[2H] [Example 12, 1′-(7-methoxy-1,3-dimethyl-1H-indazole-5-carbonyl)-2-(2-(methyl-d3)propan-2-yl-1,1,1,3,3,3-d6)-5H-spiro[benzo[d]thiazole-6,4′-piperidin]-4(7H)-one]",5.2
4,"COc1cc(C(=O)N2CCC3(CC2)CC(=O)c2nc(C4(C)CC4)sc2C3)cc2c(C)nn(C)c12 [Example 11, 1′-(7-methoxy-1,3-dimethyl-1H-indazole-5-carbonyl)-2-(1-methylcyclopropyl)-5H-spiro[benzo[d]thiazole-6,4′-piperidin]-4(7H)-one]",4.5
5,Cc1cn(C)c2c(C)cc(C(=O)N3CCC4(CC3)CC(=O)c3nc(C(C)(C)C)sc3C4)cc12 [Example 87],6.2
6,"CSc1cnc2c(C)cc(C(=O)N3CCC4(CC3)CC(=O)c3nc(C(C)(C)C)sc3C4)cc2c1 [Example 21, 2-(tert-butyl)-1′-(8-methyl-3-(methylthio)quinoline-6-carbonyl)-5H-spiro[benzo[d]thiazole-6,4′-piperidin]-4(7H)-one]",3.6
7,COc1ccc2ccc(C(=O)N3CCC4(CC3)CC(=O)c3nc(C(C)(C)C)sc3C4)cc2c1 [Example 58],7.1
8,CCc1n[nH]c2c(OC)cc(C(=O)N3CCC4(CC3)CC(=O)c3nc(C(C)(C)C)sc3C4)cc12 [Example 107],12.3
9,COc1cccc2cc(C(=O)N3CCC4(CC3)CC(=O)c3nc(C(C)(C)C)sc3C4)[nH]c12 [Example 60],27.3
10,Cc1c[nH]c2cc(C(=O)N3CCC4(CC3)CC(=O)c3nc(C(C)(C)C)sc3C4)ccc12 [Example 51],22.4
11,CCc1cnc2c(OC)cc(C(=O)N3CCC4(CC3)CC(=O)c3nc(C(C)(C)C)sc3C4)cc2c1 [Example 105],33.6
12,Cc1cccc2ccc(C(=O)N3CCC4(CC3)CC(=O)c3nc(C(C)(C)C)sc3C4)cc12 [Example 91],14
13,COc1cc(C(=O)N2CCC3(CC2)CC(=O)c2nc(C(C)(C)C)sc2C3)cc2cc(C3CC3)cnc12 [Example 104],6.7
14,COc1cnc2c(OC)cc(C(=O)N3CCC4(CC3)CC(=O)c3nc(C(C)(C)C)sc3C4)cc2c1 [Example 101],10.1
15,"CNc1ccc2c(C)cc(C(=O)N3CCC4(CC3)CC(=O)c3nc(C(C)C)sc3C4)cc2n1 [Example 8, 2-isopropyl-1′-(5-methyl-2-(methylamino)quinoline-7-carbonyl)-5H-spiro[benzo[d]thiazole-6,4′-piperidin]-4(7H)-one]",5.5
16,COc1cc(C(=O)N2CCC3(CC2)CC(=O)c2nc(C(C)(C)C)sc2C3)cc2c(C)n[nH]c12 [Example 49],6.4
17,COc1cc(C(=O)N2CCC3(CC2)CC(=O)c2nc(C(C)(C)C)sc2C3)c2[nH]ncc2c1 [Example 75],17.6
18,"CCOc1cnc2c(C)cc(C(=O)N3CCC4(CC3)CC(=O)c3nc(C(C)(C)C)sc3C4)cc2c1 [Example 20, 2-(tert-butyl)-1′-(3-ethoxy-8-methylquinoline-6-carbonyl)-5H-spiro[benzo[d]thiazole-6,4′-piperidin]-4(7H)-one]",30.1
19,COc1cc(C(=O)N2CCC3(CC2)CC(=O)c2nc(C(C)(C)C)sc2C3)c2[nH]nc(C)c2c1 [Example 98],8.6
20,"CN(C)c1cc(C(=O)N2CCC3(CC2)CC(=O)c2nc(C(C)(C)C)sc2C3)cc(-c2ccc(C(N)=O)cc2)n1 [Example 22, 4-(4-(2-(tert-butyl)-4-oxo-4,7-dihydro-5H-spiro[benzo[d]thiazole-6,4′-piperidine]-1′-carbonyl)-6-(dimethylamino)pyridin-2-yl)benzamide]",0.9
21,COc1cccc2ncc(C(=O)N3CCC4(CC3)CC(=O)c3nc(C(C)(C)C)sc3C4)cc12 [Example 66],115
22,Cc1ccc(C)c2[nH]c(C(=O)N3CCC4(CC3)CC(=O)c3nc(C(C)(C)C)sc3C4)cc12 [Example 55],3.5

row,Molecule,IC50 [nM]
1,COc1cc(C(=O)N2CCC3(CC2)CC(=O)c2nc(C(C)(C)C)sc2C3)cc(-c2ccccc2)n1 [Example 69],16.1
2,"CC(C)(C)c1nc2c(s1)CC1(CCN(C(=O)c3ccc4ccc(NC5CCC5)nc4c3)CC1)CC2=O [Example 31, 2-(tert-butyl)-1′-(2-(cyclobutylamino)quinoline-7-carbonyl)-5H-spiro[benzo[d]thiazole-6,4′-piperidin]-4(7H)-one]",4
3,"CCNc1cnc2c(C)cc(C(=O)N3CCC4(CC3)CC(=O)c3nc(C(C)(C)C)sc3C4)cc2c1 [Example 18, 2-(tert-butyl)-1′-(3-(ethylamino)-8-methylquinoline-6-carbonyl)-5H-spiro[benzo[d]thiazole-6,4′-piperidin]-4(7H)-one]",3.2
4,CC(C)(C)c1nc2c(s1)CC1(CCN(C(=O)c3cc(Cl)cc4cc[nH]c34)CC1)CC2=O [Example 90],9.6
5,"2-(tert-butyl)-1′-(4-chloro-5-methoxy-1H-indole-7-carbonyl)-5H-spiro[benzo[d]thiazole-6,4′-piperidin]-4(7H)-one [Example 37]",1.3
6,COc1cc(C(=O)N2CCC3(CC2)CC(=O)c2nc(C(C)(C)C)sc2C3)cc2c1ccn2C [Example 83],11.1
7,Cc1cc(C(=O)N2CCC3(CC2)CC(=O)c2nc(C(C)(C)C)sc2C3)cc2c1ccn2C [Example 82],6.1
8,COc1ccc2cc(C(=O)N3CCC4(CC3)CC(=O)c3nc(C(C)(C)C)sc3C4)cc(C)c2n1 [Example 80],109
9,Cc1ccnc2c(C)cc(C(=O)N3CCC4(CC3)CC(=O)c3nc(C(C)(C)C)sc3C4)cc12 [Example 96],26.1
10,COc1nccc2ccc(C(=O)N3CCC4(CC3)CC(=O)c3nc(C(C)(C)C)sc3C4)cc12 [Example 46],85.9
11,CNc1cc2ccccc2cc1C(=O)N1CCC2(CC1)CC(=O)c1nc(C(C)(C)C)sc1C2 [Example 53],18.1
12,"CCNc1ccc2c(C)cc(C(=O)N3CCC4(CC3)CC(=O)c3nc(C(C)(C)C)sc3C4)cc2n1 [Example 39, 2-(tert-butyl)-1′-(2-(ethylamino)-5-methylquinoline-7-carbonyl)-5H-spiro[benzo[d]thiazole-6,4′-piperidin]-4(7H)-one]",6.4
13,CNc1nc2ccccc2cc1C(=O)N1CCC2(CC1)CC(=O)c1nc(C(C)(C)C)sc1C2 [Example 74],189
14,CC(C)(C)c1nc2c(s1)CC1(CCN(C(=O)c3cc(O)c4ccccc4c3)CC1)CC2=O [Example 57],19.7
15,"CCc1nc2c(s1)CC1(CCN(C(=O)c3cc(C)c4[nH]nc(C)c4c3)CC1)CC2=O [Example 6, 1′-(3,7-dimethyl-1H-indazole-5-carbonyl)-2-ethyl-5H-spiro[benzo[d]thiazole-6,4′-piperidin]-4(7H)-one]",45.5
16,Cc1cc(C(=O)N2CCC3(CC2)CC(=O)c2nc(C(C)(C)C)sc2C3)cc2c(Cl)n[nH]c12 [Example 50],5.4
17,"Cc1cnc(C)c2cc(C(=O)N3CCC4(CC3)CC(=O)c3nc(C(C)(C)C)sc3C4)ccc12 [Example 27, 2-(tert-butyl)-1′-(1,4-dimethylisoquinoline-7-carbonyl)-5H-spiro[benzo[d]thiazole-6,4′-piperidin]-4(7H)-one]",29.5
18,CC(C)(C)c1nc2c(s1)CC1(CCN(C(=O)c3ccc(Cl)c4cc[nH]c34)CC1)CC2=O [Example 89],6.3
19,COc1cc(C(=O)N2CCC3(CC2)CC(=O)c2nc(C(C)(C)C)sc2C3)cc2c(C)ccnc12 [Example 95],46.5
20,COc1cc(C(=O)N2CCC3(CC2)CC(=O)c2nc(C(C)(C)C)sc2C3)cc2c(OC)nccc12 [Example 100],3.1
21,CCc1nn(C)c2c(OC)cc(C(=O)N3CCC4(CC3)CC(=O)c3nc(C(C)(C)C)sc3C4)cc12 [Example 108],5.6
